Counter-ions that a name gives are not always drawn.
Columns and labels:
[1] = target: Adenosine Receptor A2A (ADORA2A) (Homo sapiens, UniProt P29274); assay: Calcium flux assay, ADORA2A; type: cell-based
[2] = target: T1, Rho Associated Coiled-Coil Containing Protein Kinase 1 (ROCK1) (Homo sapiens, UniProt Q13464); assay: KINOMEscan binding assay, ROCK1
T1 construct: made in house; host or cells: E. coli BL21-derived host (T7 phage) or HEK-293

[3] = target: Opioid Receptor Mu (OPRM1) (Homo sapiens, UniProt P35372); assay: cell-based
Sequence of Opioid Receptor Mu (OPRM1) (P35372 whole entry): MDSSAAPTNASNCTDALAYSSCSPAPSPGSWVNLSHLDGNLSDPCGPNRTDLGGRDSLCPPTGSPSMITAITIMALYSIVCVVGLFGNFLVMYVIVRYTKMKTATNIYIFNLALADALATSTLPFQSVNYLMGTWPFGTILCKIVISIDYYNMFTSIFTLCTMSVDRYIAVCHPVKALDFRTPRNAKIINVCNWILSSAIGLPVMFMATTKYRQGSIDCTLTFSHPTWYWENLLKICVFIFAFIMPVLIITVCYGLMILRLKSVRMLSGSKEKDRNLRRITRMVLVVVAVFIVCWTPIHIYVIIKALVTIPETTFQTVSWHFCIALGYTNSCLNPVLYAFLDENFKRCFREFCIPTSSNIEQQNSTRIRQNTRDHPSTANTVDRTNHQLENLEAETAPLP

[4] = target: Arginine Vasopressin Receptor 1A (AVPR1A) (Homo sapiens, UniProt P37288); assay: Calcium flux assay, AVPR1A; type: cell-based
Sequence of Arginine Vasopressin Receptor 1A (AVPR1A) (P37288 whole entry): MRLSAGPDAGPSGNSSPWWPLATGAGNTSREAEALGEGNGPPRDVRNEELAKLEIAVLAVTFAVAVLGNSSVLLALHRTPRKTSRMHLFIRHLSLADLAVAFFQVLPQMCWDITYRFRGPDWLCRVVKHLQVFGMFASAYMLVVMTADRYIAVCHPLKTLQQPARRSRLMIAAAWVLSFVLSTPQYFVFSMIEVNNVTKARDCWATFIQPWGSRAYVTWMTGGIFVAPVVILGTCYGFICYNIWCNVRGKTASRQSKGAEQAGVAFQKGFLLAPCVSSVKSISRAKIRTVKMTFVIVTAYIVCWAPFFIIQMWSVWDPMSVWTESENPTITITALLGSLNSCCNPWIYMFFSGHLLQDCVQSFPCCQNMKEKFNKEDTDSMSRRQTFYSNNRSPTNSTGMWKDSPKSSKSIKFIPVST

[5] = target: Cannabinoid Receptor 1 (CNR1) (Homo sapiens, UniProt P21554); assay: cAMP assay, CNR1; type: cell-based
Sequence of Cannabinoid Receptor 1 (CNR1) (P21554 whole entry): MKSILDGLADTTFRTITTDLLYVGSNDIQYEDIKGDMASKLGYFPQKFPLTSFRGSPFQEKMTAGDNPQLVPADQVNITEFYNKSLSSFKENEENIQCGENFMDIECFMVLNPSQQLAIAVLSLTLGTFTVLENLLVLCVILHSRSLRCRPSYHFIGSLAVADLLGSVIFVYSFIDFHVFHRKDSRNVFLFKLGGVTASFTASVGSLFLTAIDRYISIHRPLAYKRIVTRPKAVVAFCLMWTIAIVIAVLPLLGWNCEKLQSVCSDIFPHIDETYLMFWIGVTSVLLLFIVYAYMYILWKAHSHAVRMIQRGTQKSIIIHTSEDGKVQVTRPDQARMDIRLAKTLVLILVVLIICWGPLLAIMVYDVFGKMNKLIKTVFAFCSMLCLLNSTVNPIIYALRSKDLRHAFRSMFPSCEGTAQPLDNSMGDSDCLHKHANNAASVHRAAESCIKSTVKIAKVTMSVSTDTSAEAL

[6] = target: T2, 5-Hydroxytryptamine (Serotonin) Receptor 1A (5-HT1A) (Homo sapiens, UniProt P08908); assay: cAMP secondary messenger assay, 5-HT1A; type: cell-based
T2 sequence (P08908 1-422): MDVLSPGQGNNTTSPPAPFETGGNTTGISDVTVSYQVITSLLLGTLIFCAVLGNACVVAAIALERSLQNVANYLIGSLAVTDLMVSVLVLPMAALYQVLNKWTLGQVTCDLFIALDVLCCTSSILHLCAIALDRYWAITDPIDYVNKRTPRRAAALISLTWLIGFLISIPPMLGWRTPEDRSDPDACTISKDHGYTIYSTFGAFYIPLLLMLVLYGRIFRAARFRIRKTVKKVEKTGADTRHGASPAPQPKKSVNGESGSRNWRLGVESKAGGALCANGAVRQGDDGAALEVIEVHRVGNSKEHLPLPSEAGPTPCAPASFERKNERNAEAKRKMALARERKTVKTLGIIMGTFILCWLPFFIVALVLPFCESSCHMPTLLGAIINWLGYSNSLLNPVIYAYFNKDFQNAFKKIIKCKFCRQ

[7] = target: Opioid Receptor Kappa 1 (OPRK1) (Homo sapiens, UniProt P41145); assay: cAMP assay, OPRK1; type: cell-based
Sequence of Opioid Receptor Kappa 1 (OPRK1) (P41145 whole entry): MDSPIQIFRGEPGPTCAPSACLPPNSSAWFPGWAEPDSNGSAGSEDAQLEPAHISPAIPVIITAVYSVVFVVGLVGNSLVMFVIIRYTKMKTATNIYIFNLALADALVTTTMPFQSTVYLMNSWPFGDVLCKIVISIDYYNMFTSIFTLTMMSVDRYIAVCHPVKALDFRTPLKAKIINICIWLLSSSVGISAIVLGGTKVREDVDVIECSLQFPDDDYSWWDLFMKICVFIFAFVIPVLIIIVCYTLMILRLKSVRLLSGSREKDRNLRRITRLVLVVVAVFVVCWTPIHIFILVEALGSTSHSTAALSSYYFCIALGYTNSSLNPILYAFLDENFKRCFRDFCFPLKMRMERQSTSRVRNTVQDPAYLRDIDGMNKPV

Cyclooxygenase 1 (COX1) = target: T3, Cyclooxygenase 1 (COX1) (Homo sapiens, UniProt P23219); assay: Enzymatic assay, COX1; type: biochemical
T3 construct: purchased BPS Bioscience
T3 sequence (P23219 24-599): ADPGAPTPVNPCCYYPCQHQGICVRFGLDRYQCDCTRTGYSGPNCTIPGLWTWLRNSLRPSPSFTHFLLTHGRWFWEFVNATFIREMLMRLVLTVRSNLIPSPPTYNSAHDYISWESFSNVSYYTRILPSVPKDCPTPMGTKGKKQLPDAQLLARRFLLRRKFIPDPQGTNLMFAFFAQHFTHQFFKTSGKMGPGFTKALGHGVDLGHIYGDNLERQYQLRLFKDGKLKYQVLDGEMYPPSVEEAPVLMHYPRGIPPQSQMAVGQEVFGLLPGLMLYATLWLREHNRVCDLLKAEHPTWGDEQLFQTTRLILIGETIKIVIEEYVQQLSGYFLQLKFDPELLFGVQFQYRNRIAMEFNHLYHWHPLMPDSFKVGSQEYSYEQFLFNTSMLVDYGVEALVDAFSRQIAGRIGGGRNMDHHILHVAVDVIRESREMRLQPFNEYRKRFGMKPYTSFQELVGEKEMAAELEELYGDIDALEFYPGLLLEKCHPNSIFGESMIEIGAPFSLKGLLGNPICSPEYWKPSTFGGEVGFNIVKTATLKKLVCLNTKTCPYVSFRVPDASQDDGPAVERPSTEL

[8] = target: Dopamine Receptor D2 (DRD2S) (Homo sapiens, UniProt P14416); assay: cAMP assay, DRD2S; type: cell-based
Sequence of Dopamine Receptor D2 (DRD2S) (P14416 1-414 isoform P14416-2): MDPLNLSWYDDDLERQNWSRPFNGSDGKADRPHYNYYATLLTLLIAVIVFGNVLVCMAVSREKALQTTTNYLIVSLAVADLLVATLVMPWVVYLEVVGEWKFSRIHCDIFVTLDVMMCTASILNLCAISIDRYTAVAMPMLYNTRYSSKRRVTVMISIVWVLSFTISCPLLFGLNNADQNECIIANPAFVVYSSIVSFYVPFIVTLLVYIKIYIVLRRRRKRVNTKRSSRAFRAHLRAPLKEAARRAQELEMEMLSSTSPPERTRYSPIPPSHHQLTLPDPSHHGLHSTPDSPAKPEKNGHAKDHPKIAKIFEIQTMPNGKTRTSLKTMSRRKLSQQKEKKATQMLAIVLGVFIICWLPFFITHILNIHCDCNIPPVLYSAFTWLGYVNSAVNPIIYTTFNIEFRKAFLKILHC

[9] = target: Cannabinoid Receptor 2 (CNR2) (Homo sapiens, UniProt P34972); assay: cAMP assay, CNR2; type: cell-based
Sequence of Cannabinoid Receptor 2 (CNR2) (P34972 whole entry): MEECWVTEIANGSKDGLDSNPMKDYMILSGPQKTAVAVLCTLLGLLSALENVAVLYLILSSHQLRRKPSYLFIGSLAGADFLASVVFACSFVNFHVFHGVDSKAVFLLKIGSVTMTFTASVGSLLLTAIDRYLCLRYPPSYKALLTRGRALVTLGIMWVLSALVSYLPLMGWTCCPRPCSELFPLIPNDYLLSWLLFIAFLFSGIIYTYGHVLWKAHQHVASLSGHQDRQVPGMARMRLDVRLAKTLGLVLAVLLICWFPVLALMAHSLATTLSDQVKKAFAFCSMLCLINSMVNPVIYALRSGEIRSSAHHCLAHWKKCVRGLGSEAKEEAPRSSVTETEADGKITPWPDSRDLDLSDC

[10] = target: T4, CAMP-specific 3′,5′-cyclic phospho-diesterase (PDE4D2) (Homo sapiens, UniProt Q08499); assay: Enzymatic assay, PDE4D2; type: biochemical
T4 construct: purchased Signal Chem
T4 sequence (Q08499 303-809 limits assumed): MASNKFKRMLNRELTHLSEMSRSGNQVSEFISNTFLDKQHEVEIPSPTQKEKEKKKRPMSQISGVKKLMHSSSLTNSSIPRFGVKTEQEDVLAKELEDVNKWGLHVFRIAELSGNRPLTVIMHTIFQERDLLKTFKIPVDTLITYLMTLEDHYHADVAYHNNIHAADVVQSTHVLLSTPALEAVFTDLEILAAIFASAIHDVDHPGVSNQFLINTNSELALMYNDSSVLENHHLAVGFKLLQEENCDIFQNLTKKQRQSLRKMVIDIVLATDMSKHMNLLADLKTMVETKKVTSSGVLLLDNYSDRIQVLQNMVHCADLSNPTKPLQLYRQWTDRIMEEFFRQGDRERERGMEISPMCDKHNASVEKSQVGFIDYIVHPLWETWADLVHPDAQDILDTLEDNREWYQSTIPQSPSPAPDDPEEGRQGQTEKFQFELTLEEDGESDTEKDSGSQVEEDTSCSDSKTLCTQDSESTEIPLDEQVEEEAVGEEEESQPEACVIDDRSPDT

[11] = target: T5, Nuclear Hormone Androgen Receptor (AR) (Homo sapiens, UniProt P10275); assay: NHR Nuclear Translocation assay, AR; type: cell-based
T5 sequence (P10275 1-920): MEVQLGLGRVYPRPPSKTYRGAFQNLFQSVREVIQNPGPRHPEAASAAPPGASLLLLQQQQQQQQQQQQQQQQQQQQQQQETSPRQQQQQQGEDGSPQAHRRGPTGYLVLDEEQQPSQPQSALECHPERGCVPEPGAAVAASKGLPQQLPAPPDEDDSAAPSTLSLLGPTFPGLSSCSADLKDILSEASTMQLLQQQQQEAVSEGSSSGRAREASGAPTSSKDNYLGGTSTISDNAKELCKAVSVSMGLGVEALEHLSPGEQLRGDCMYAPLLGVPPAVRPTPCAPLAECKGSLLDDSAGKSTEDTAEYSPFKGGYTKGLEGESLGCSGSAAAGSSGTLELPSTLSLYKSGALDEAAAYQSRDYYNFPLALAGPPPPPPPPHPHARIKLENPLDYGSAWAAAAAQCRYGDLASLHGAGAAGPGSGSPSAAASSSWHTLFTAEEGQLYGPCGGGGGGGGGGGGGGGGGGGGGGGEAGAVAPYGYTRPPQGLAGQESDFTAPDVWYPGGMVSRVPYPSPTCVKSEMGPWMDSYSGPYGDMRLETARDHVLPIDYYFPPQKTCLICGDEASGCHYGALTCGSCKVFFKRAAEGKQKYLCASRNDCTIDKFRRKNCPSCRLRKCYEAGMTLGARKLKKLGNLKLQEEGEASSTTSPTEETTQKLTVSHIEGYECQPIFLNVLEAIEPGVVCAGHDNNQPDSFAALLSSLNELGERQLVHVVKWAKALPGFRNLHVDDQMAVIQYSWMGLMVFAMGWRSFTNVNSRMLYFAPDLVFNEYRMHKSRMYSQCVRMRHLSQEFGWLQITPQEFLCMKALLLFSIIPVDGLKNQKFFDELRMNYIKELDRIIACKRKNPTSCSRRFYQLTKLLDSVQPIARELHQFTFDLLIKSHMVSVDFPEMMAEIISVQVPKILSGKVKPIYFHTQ

[12] = target: T6, Muscarinic acetylcholine Receptor M1 (CHRM1) (Homo sapiens, UniProt P11229); assay: cell-based
T6 sequence (P11229 1-460): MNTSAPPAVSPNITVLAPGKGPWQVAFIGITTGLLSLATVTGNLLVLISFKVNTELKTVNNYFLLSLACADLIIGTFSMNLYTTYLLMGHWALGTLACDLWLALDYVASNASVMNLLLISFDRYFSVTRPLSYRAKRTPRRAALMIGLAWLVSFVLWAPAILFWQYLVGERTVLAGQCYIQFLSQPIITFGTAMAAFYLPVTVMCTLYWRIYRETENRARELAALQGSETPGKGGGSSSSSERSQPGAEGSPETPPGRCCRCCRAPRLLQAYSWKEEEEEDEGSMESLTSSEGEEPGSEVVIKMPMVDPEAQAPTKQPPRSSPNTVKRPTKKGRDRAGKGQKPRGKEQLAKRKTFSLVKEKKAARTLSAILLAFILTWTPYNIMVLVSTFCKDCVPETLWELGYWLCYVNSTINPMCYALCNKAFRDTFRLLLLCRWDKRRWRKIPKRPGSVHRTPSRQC

Sequence of Adenosine Receptor A2A (ADORA2A) (P29274 whole entry): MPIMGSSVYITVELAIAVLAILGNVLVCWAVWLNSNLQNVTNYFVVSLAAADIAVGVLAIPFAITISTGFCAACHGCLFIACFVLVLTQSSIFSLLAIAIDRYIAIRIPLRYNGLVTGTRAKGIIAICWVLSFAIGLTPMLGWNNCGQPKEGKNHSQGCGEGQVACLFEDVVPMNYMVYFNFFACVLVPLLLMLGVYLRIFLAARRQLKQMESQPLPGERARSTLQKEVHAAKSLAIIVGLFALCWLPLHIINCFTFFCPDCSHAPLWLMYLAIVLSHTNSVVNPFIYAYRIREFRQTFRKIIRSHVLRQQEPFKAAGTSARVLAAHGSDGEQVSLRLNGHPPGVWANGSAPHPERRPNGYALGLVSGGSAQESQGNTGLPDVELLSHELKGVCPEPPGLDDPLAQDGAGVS

SMILES	EC50 [1] [µM]	IC50 [1] [µM]	IC50 [2] [µM]	EC50 [3] [µM]	IC50 [3] [µM]	EC50 [4] [µM]	IC50 [4] [µM]	EC50 [5] [µM]	IC50 [5] [µM]	EC50 [6] [µM]	IC50 [6] [µM]	EC50 [7] [µM]	IC50 [7] [µM]	IC50 (Cyclooxygenase 1 (COX1)) [µM]	EC50 [8] [µM]	IC50 [8] [µM]	EC50 [9] [µM]	IC50 [9] [µM]	IC50 [10] [µM]	EC50 [11] [µM]	also measured
CNC(C)C(=O)c1c[nH]c2ccc(Br)cc12 (stereo not drawn) [BK-5Br-NM-AMT, 1-(5-bromo-1H-indol-3-yl)-2-(methylamino) propan-1-one hydrochloride]	> 10	> 10	> 10	> 10	> 10	> 10	> 10	> 10	> 10	> 10	> 10	> 10	> 10	> 10	> 10	4.26	> 10	> 10	> 10	> 10	IC50 [11]: > 10 µM; EC50 [12]: > 10 µM; IC50 [12]: > 10 µM
CNC(C)C(=O)c1c[nH]c2ccc(Cl)cc12 (stereo not drawn) [BK-5Cl-NM-AMT, 1-(5-chloro-1H-indol-3-yl)-2-(methylamino) propan-1-one hydrochloride]	> 10	> 10	> 10	> 10	> 10	> 10	> 10	> 10	> 10	> 10	> 10	> 10	> 10	> 10	> 10	6.22	> 10	> 10	> 10	> 10	IC50 [11]: > 10 µM; EC50 [12]: > 10 µM; IC50 [12]: > 10 µM
CNC(C)C(=O)c1c[nH]c2ccc(F)cc12 (stereo not drawn) [BK-5F-NM-AMT, 1-(5-Fluoro-1H-indol-3-yl)-2-(methylamino) propan-1-one hydrochloride]	> 10	> 10	> 10	> 10	> 10	> 10	> 10	> 10	> 10	> 10	> 10	> 10	> 10	> 10	> 10	5.2	> 10	> 10	> 10	> 10	IC50 [11]: > 10 µM; EC50 [12]: > 10 µM; IC50 [12]: > 10 µM

Reference: US20230257347A1 (priority 2020, published 2023)
